The results in this text go back to ChEMBL document CHEMBL2380201, “Synthesis, biological activity and resistance to proteolytic digestion of new cyclic dermorphin/deltorphin analogues” (Eur J Med Chem, 2013).

The test system of data set [1] is chymotrypsin. Briefly: Proteolytic stability of the compound in ammonium bicarbonate buffer assessed as hydrolysis at pH 8 at 10^-4 M after 1.5 hrs by ESI-MS spectrophotometry in presence of chymotrypsin. In kind it is ADME. The settings on record: read-out: Drug degradation.
Data set [2] concerns Mus musculus. Put plainly: Antinociceptive activity in BALB/c mouse assessed as increase in paw withdrawal latency at 1 mg/kg, ip measured 30 mins post dose by hot plate test. In kind it is functional, organism-based. Further details: dose 1 mg/kg. (In general: Hot-plate and tail-flick tests time the reaction to a heat stimulus.)
Data set [3] relates to Mus musculus. Put plainly: Antinociceptive activity in BALB/c mouse assessed as increase in paw withdrawal latency at 0.1 mg/kg, sc measured 30 mins post dose by hot plate test. In kind it is functional, organism-based. Further details: dose 0.1 mg/kg.
In data set [4] the test system is Mus musculus. Briefly: Antinociceptive activity in BALB/c mouse assessed as increase in paw withdrawal latency at 1 mg/kg, iv measured 30 mins post dose by hot plate test. Format: functional, organism-based. The arrangement: dose 1 mg/kg.
A short description of data set [5]: Proteolytic stability of the compound in ammonium bicarbonate buffer assessed as hydrolysis at pH 8 at 10^-4 M after 12 hrs by ESI-MS spectrophotometry in presence […]. Format: ADME. The settings on record: isolated protein, pH 8, 12 h, 100 µM.
The nature of data set [6]: Proteolytic stability of the compound in ammonium bicarbonate buffer assessed as hydrolysis at pH 8 at 10^-4 M after 12 hrs by ESI-MS spectrophotometry in presence of chymotrypsin. The settings on record: isolated protein, pH 8, 12 h, 100 µM. In kind it is ADME.
In data set [7] the test system is Mus musculus. Briefly: Antinociceptive activity in BALB/c mouse at 4 mg/kg, iv up to 120 mins by tail flick test. In kind it is functional, organism-based. Further details: dose 4 mg/kg.
The subject of data set [8] is Mus musculus. Briefly: Antinociceptive activity in BALB/c mouse at 2 mg/kg, iv measured 15 to 180 mins post dose by tail flick test. Further details: dose 2 mg/kg. Format: functional, organism-based.
Data set [9] concerns Mus musculus. Briefly: Antinociceptive activity in BALB/c mouse at 1 mg/kg, iv measured 30 to 90 mins post dose by tail flick test relative to vehicle-treated control. Format: functional.
The test system of data set [10] is Mus musculus. Put plainly: Antinociceptive activity in BALB/c mouse at 0.5 mg/kg, iv measured 30 to 90 mins post dose by tail flick test relative to vehicle-treated control. In kind it is functional.
In data set [11] the test system is Mus musculus. Briefly: Antinociceptive activity in iv dosed BALB/c mouse measured 15 to 180 mins post dose by tail flick test. In kind it is functional, organism-based.
The nature of data set [12]: Proteolytic stability of the compound in ammonium bicarbonate buffer assessed as hydrolysis at pH 8 at 10^-4 M after 20 mins to 12 hrs by ESI-MS spectrophotometry in presence […]. In kind it is ADME. The settings on record: isolated protein, pH 8, 100 µM.
Data set [13] is described as follows: Proteolytic stability of the compound in ammonium bicarbonate buffer assessed as hydrolysis at pH 8 at 10^-4 M after 20 mins to 12 hrs by ESI-MS spectrophotometry in presence of chymotrypsin. The settings on record: isolated protein, pH 8, 100 µM. In kind it is ADME.
Data set [14] in a line: Proteolytic stability of the compound in ammonium bicarbonate buffer assessed as intact cyclic fragment at pH 8 at 10^-4 M after 2.5 hrs by ESI-MS spectrophotometry in presence […]. Format: ADME. The settings on record: isolated protein, pH 8, 2.5 h, 100 µM.
Data set [15] is described as follows: Proteolytic stability of the compound in ammonium bicarbonate buffer assessed as hydrolysis at pH 8 at 10^-4 M after 2.5 hrs by ESI-MS spectrophotometry in presence […]. In kind it is ADME. The settings on record: isolated protein, pH 8, 2.5 h, 100 µM.
Data set [16] has as its system Mus musculus. Briefly: Antinociceptive activity in BALB/c mouse at 2 mg/kg, iv measured 30 mins post dose by tail flick test relative to vehicle-treated control. Format: functional.

Active and inactive are the calls of the source. The rule behind the calls is not given here. Numbered stars: 1 amine (or outer) side, 2 acyl side, 3 side chain; on linkers, the order of the positions; unused ones are H or OH. Bridge positions count the residues as written; N and C are the ends. Square brackets hold non-standard residues; d marks the D form. Peptide text beside a SMILES is read from it. ξ: configuration not given here. Orn = NCCC[C@H](N)C(=O)O; Dap = NC[C@H](N)C(=O)O; ξOrn = NCCCC(N)C(=O)O; CO = O=C([*:1])[*:2]; ξDap = NCC(N)C(=O)O

Turning to `NC(=O)NCCNC(=O)[C@@H]1CCCCNC(=O)NCCC[C@@H](NC(=O)[C@@H](N)Cc2ccc(O)cc2)C(=O)N[C@@H](Cc2ccccc2)C(=O)N1`, in data set [1], the metabolised at 1.5 h, 100 µM is < 1%. Moreover, the result in [2], in data set [3] and in data set [4] was inactive. For the same compound, the Stability entry in data set [5] and in data set [6] was “Stable” each time.
`NC(=O)NCCNC(=O)[C@@H]1CCNC(=O)NCCCC[C@@H](NC(=O)[C@@H](N)Cc2ccc(O)cc2)C(=O)N[C@@H](Cc2ccccc2)C(=O)N1`: the metabolised at 1.5 h, 100 µM in data set [1] was < 1%. The outcome in data set [7], in [8] and in data set [4] was Active. For the same compound, the MPE in data set [9] is 54.7%; in [10], 41.8%. The Activity result in data set [11] is “Dose-dependent effect”. The result in data set [2] and in data set [3] was inactive. Besides, the Stability entry in data set [12] and in [13] was “Stable” throughout.
As to `NC(=O)NCCNC(=O)[C@@H]1CNC(=O)NCCCC[C@@H](NC(=O)[C@@H](N)Cc2ccc(O)cc2)C(=O)N[C@@H](Cc2ccccc2)C(=O)N1`, the metabolised at 1.5 h, 100 µM in data set [1] was < 1%. Further, the result in [2], in data set [3] and in data set [4] was inactive. The Stability entry in [5] and in data set [6] was “Stable” in each case.
Turning to `NCCNC(=O)[C@@H]1CNC(=O)NCCCC[C@@H](NC(=O)[C@@H](N)Cc2ccc(O)cc2)C(=O)N[C@@H](Cc2ccccc2)C(=O)N1`, in data set [1], the metabolised at 1.5 h, 100 µM is < 1%. The result in data set [2], in data set [3] and in [4] was inactive. For the same compound, the Stability entry in [5] and in data set [6] was “Stable” in each case.
`NC(=O)[C@@H]1CNC(=O)NCCCC[C@H](NC(=O)[C@@H](N)Cc2ccc(O)cc2)C(=O)N[C@@H](Cc2ccccc2)C(=O)N1` (H-YKF[Dap]-NH2; linker 2-4 via CO): the Stability in [14] is 98%.
For `NC(=O)[C@@H]1CCCCNC(=O)NCCC[C@H](NC(=O)[C@@H](N)Cc2ccc(O)cc2)C(=O)N[C@@H](Cc2ccccc2)C(=O)N1` (H-Y[Orn]FK-NH2; linker 2-4 via CO), the Stability result in [15] is given as “Unstable”.
As for `CN1CC[C@]23c4c5ccc(O)c4O[C@H]2[C@@H](O)C=C[C@H]3[C@H]1C5` [MORPHINE], in data set [7], the outcome was Active. For the same compound, the MPE in data set [16] is reported as 63.1%. The outcome in [9], in data set [10] and in data set [4] was inactive.
As to `NC(=O)C1CNC(=O)NCCCC(NC(=O)[C@@H](N)Cc2ccc(O)cc2)C(=O)N[C@@H](Cc2ccccc2)C(=O)N1` (some centres undefined) (H-Y[ξOrn]F[ξDap]-NH2; linker 2-4 via CO), the Stability result in [15] was “Unstable”.
In the case of `CCNC(=O)[C@@H]1CCCNC(=O)NCCCC[C@@H](NC(=O)[C@@H](N)Cc2ccc(O)cc2)C(=O)N[C@@H](Cc2ccccc2)C(=O)N1`, the metabolised at 1.5 h, 100 µM in data set [1] is < 1%. In addition, the result in data set [2], in data set [3] and in data set [4] was inactive. Further, the Stability result in data set [5] and in data set [6] was “Stable” in each case.
As for `NC(=O)[C@@H]1CCCCNC(=O)NC[C@H](NC(=O)[C@@H](N)Cc2ccc(O)cc2)C(=O)N[C@@H](Cc2ccccc2)C(=O)N1` (H-Y[Dap]FK-NH2; linker 2-4 via CO), in [14], the Stability is on record as 98%.
On to `NC(=O)NCCNC(=O)[C@@H]1CNC(=O)NCCC[C@@H](NC(=O)[C@@H](N)Cc2ccc(O)cc2)C(=O)N[C@@H](Cc2ccccc2)C(=O)N1`, for which, in data set [1], the metabolised at 1.5 h, 100 µM was < 1%. The result in data set [2], in [3] and in data set [4] was inactive. The Stability entry in data set [5] and in [6] was “Stable” each time.
In the case of `NC(=O)NCCNC(=O)[C@@H]1CCNC(=O)NCCC[C@@H](NC(=O)[C@@H](N)Cc2ccc(O)cc2)C(=O)N[C@@H](Cc2ccccc2)C(=O)N1`, in [1], the metabolised at 1.5 h, 100 µM is < 1%. Further, the result in data set [2], in [3] and in data set [4] was inactive. For the same compound, the Stability entry in data set [5] and in [6] was “Stable” in each case.
Take `NC(=O)NCCNC(=O)[C@@H]1CCCCNC(=O)NCCCC[C@@H](NC(=O)[C@@H](N)Cc2ccc(O)cc2)C(=O)N[C@@H](Cc2ccccc2)C(=O)N1`: in [1], the metabolised at 1.5 h, 100 µM was < 1%. Further, the result in data set [2], in data set [3] and in [4] was inactive. For the same compound, the Stability entry in data set [5] and in [6] was “Stable” each time.
With `NC(=O)NCCNC(=O)[C@@H]1CCCNC(=O)NCCC[C@@H](NC(=O)[C@@H](N)Cc2ccc(O)cc2)C(=O)N[C@@H](Cc2ccccc2)C(=O)N1`, in [1], the metabolised at 1.5 h, 100 µM is < 1%. The outcome in data set [2], in [3] and in data set [4] was inactive. In addition, the Stability result in [5] and in data set [6] was “Stable” in each case.
As to `NC(=O)NCCNC(=O)[C@@H]1CCCNC(=O)NCCCC[C@@H](NC(=O)[C@@H](N)Cc2ccc(O)cc2)C(=O)N[C@@H](Cc2ccccc2)C(=O)N1`, in data set [1], the metabolised at 1.5 h, 100 µM is < 1%. Further, the outcome in [2], in [3] and in [4] was inactive. Further, the Stability result in [5] and in [6] was “Stable” throughout.
